# Measured values taken from paper PMC5775429, “LY2087101 and dFBr share transmembrane binding sites in the (α4)3(β2)2 Nicotinic Acetylcholine Receptor” (Scientific Reports, 2018).
# Several values for one entry are separate records, joined by “and”; a condition that tells them apart may be missing. Identical values can stand only once. Like-named read-outs stand apart in the source and are kept apart here.
# How the values were obtained:
# Assay in all cases: Two-electrode voltage-clamp of ACh-induced currents in Xenopus oocytes
# Type in all cases: cell-based
# [1] = target: T1, (α4)3(β2)2 nAChR (Homo sapiens, UniProt P17787+P43681); details: for R, potentiation ratio (PR): 10 µM ACh + 1 µM PAM vs 10 µM ACh alone
# T1 construct: expressed in transfected cells; host or cells: Xenopus laevis oocytes injected with cRNA
# T1 sequence (P43681 29-627 limits assumed): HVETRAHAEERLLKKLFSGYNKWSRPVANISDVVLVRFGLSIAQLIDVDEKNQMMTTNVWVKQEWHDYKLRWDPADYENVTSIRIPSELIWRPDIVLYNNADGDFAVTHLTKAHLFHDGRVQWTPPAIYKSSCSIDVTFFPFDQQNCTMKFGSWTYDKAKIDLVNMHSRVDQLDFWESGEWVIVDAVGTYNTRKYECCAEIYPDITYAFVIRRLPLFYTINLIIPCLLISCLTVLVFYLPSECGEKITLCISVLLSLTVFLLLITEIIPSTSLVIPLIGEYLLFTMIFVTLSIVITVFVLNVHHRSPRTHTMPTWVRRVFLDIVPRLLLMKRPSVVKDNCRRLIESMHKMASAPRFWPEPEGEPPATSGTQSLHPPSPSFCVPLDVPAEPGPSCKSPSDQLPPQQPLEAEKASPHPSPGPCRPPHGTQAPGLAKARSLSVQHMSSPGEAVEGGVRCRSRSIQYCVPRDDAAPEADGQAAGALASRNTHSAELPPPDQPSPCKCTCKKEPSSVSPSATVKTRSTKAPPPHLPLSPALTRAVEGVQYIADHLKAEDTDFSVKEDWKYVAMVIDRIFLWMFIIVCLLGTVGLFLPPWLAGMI
# T1 sequence (P17787 26-502): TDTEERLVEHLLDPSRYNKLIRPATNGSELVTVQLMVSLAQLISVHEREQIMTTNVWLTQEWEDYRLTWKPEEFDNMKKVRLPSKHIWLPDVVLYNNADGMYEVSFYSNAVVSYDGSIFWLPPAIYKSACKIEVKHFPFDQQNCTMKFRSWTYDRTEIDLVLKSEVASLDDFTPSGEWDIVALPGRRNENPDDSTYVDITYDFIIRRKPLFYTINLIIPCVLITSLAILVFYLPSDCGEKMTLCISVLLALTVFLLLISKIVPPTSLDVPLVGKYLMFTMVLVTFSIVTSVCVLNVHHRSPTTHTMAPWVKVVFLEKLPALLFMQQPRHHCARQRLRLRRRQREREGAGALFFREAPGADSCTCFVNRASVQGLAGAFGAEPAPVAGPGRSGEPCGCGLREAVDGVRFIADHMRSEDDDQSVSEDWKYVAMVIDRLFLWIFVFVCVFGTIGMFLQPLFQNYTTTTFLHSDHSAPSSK
# Procedure: To begin to characterize LY2087101 interaction with the heteropentameric α4β2 nAChRs, we examined the selectivity of LY2087101 for the two α4β2 nAChR isoforms; high-agonist sensitivity (α4)2(β2)3 and low-agonist sensitivity (α4)3(β2)2 nAChRs. Xenopus oocytes were injected with α4 and β2 subunits RNAs at ratios 8:1 and 1:8 to favor expression of (α4)3(β2)2 and (α4)2(β2)3 nAChRs, respectively.
# (§1) Ovarian lobules were surgically harvested from oocytes-positive female Xenopus laevis (NASCO, Fort Atkinson, WI) according to an animal use protocol approved by the Texas A&M Health Sciences Center Institutional Animals Care and Use Committee. The Texas A&M Health Sciences Center Research Facility is registered as an animal research facility with the United States Department of Agriculture and is fully accredited by the American Association for Accreditation of Laboratory Animal Care (AAALAC). For oocytes defolliculation, ovarian lobes were treated with 3 mg/ml collagenase type 2 (Worthington Biomedical, Lakewood, NJ) in Ca + 2-free buffer (85 mM NaCl, 2.5 mM KCl, 1 mM MgCl2, 5 mM HEPES, pH 7.6). Collagenase treatment was allowed to proceed for 3 hours at room temperature with gentle shaking then oocytes were washed several times with buffer to remove collagenase then with ND96-gentamicine buffer. Healthy Stage V and VI oocytes were visually selected and maintained at 18 °C in modified ND96-gentamicine buffer (96 mM NaCl, 2 mM KCl, 1.8 mM CaCl2, 1 mM MgCl2, 5 mM HEPES, 50 µg/ml gentamicin, pH 7.6). Oocytes were injected with 50–100 ng of the desired nAChR subunits cRNA mix at ratios of 8α:1β or 1α:8β to express nAChRs with subunit stoichiometries of 3α:2β (low agonist sensitivity) or 2α:3β (high agonist sensitivity), respectively.
# (§2) Oocytes were continuously perfused with recording buffer (100 mM NaCl, 2 mM KCl, 1 mM CaCl2, 0.8 mM MgCl2, 1 mM EGTA, 10 mM Hepes, pH 7.5) except during periods of drug applications.
# [2] = target: (α4E308V)3(β2)2 nAChR (Homo sapiens, UniProt P43681, E308V); details: for R, potentiation ratio (PR): 10 µM ACh + 1 µM PAM vs 10 µM ACh alone
# (α4E308V)3(β2)2 nAChR, sequence (P43681 29-627 E308V limits assumed): as the sequence (P43681 29-627 limits assumed) above, with E280V counted along it
# (α4E308V)3(β2)2 nAChR, sequence (P17787 26-502 partner): as the sequence (P17787 26-502) above
# Procedure: (§3) For amino acid substitutions within the α4 nAChR subunit, point mutations were introduced into pSP64ployA plasmid with cDNA encoding for human α4 nAChR subunit with mutagenic primer pairs using the Quick Change II Site-Directed Mutagenesis Kit (Agilent Technologies) then confirmed by DNA sequencing (GENEWIZ, LLC, South Plainfield, NJ). cRNA transcripts suitable for oocyte expression were prepared in vitro from linearized plasmids [α3 (BamH1), α4 (AseI), β2 (PvuII), β4 (XhoI)] using mMESSAGE mMACHINE high yield capped RNA transcription kits (Ambion) and purified on NucAway Spin column (Invitrogen). cRNA concentration was determined by spectroscopy (Concentration (ug/ul) = Abs260 * 40), aliquoted and stored at −80 °C until used.
# as §1, §2
# [3] = target: T2, (α4F312V)3(β2)2 nAChR (Homo sapiens, UniProt P17787+P43681, F312V); details: for R, potentiation ratio (PR): 10 µM ACh + 1 µM PAM vs 10 µM ACh alone
# T2 construct: expressed in transfected cells; host or cells: Xenopus laevis oocytes injected with cRNA
# T2 sequence (P43681 29-627 F312V limits assumed): as the sequence (P43681 29-627 limits assumed) above, with F284V counted along it
# T2 sequence (P17787 26-502): as the sequence (P17787 26-502) above
# Procedure: as §3, §1, §2
# [4] = target: (α4F316L)3(β2)2 nAChR (Homo sapiens, UniProt P43681, F316L); details: for R, potentiation ratio (PR): 10 µM ACh + 1 µM PAM vs 10 µM ACh alone
# (α4F316L)3(β2)2 nAChR, sequence (P43681 29-627 F316L limits assumed): as the sequence (P43681 29-627 limits assumed) above, with F288L counted along it
# (α4F316L)3(β2)2 nAChR, sequence (P17787 26-502 partner): as the sequence (P17787 26-502) above
# Procedure: as §3, §1, §2
# [5] = target: T3, (α4F606Y)3(β2)2 nAChR (Homo sapiens, UniProt P17787+P43681, F606Y); details: for R, potentiation ratio (PR): 10 µM ACh + 1 µM PAM vs 10 µM ACh alone
# T3 construct: expressed in transfected cells; host or cells: Xenopus laevis oocytes injected with cRNA
# T3 sequence (P43681 29-627 F606Y limits assumed): as the sequence (P43681 29-627 limits assumed) above, with F578Y counted along it
# T3 sequence (P17787 26-502): as the sequence (P17787 26-502) above
# Procedure: as §3, §1, §2
# [6] = target: T4, (α4I275V)3(β2)2 nAChR (Homo sapiens, UniProt P17787+P43681, I275V); details: for R, potentiation ratio (PR): 10 µM ACh + 1 µM PAM vs 10 µM ACh alone
# T4 construct: expressed in transfected cells; host or cells: Xenopus laevis oocytes injected with cRNA
# T4 sequence (P43681 29-627 I275V limits assumed): as the sequence (P43681 29-627 limits assumed) above, with I247V counted along it
# T4 sequence (P17787 26-502): as the sequence (P17787 26-502) above
# Procedure: as §3, §1, §2
# [7] = target: T5, (α4I315A)3(β2)2 nAChR (Homo sapiens, UniProt P17787+P43681, I315A); details: for R, potentiation ratio (PR): 10 µM ACh + 1 µM PAM vs 10 µM ACh alone
# T5 construct: expressed in transfected cells; host or cells: Xenopus laevis oocytes injected with cRNA
# T5 sequence (P43681 29-627 I315A limits assumed): as the sequence (P43681 29-627 limits assumed) above, with I287A counted along it
# T5 sequence (P17787 26-502): as the sequence (P17787 26-502) above
# Procedure: as §3, §1, §2
# [8] = target: T6, (α4I608L)3(β2)2 nAChR (Homo sapiens, UniProt P17787+P43681, I608L); details: for R, potentiation ratio (PR): 10 µM ACh + 1 µM PAM vs 10 µM ACh alone
# T6 construct: expressed in transfected cells; host or cells: Xenopus laevis oocytes injected with cRNA
# T6 sequence (P43681 29-627 I608L limits assumed): as the sequence (P43681 29-627 limits assumed) above, with I580L counted along it
# T6 sequence (P17787 26-502): as the sequence (P17787 26-502) above
# Procedure: as §3, §1, §2
# [9] = target: T7, (α4L260M)3(β2)2 nAChR (Homo sapiens, UniProt P17787+P43681, L260M); details: for R, potentiation ratio (PR): 10 µM ACh + 1 µM PAM vs 10 µM ACh alone
# T7 construct: expressed in transfected cells; host or cells: Xenopus laevis oocytes injected with cRNA
# T7 sequence (P43681 29-627 L260M limits assumed): as the sequence (P43681 29-627 limits assumed) above, with L232M counted along it
# T7 sequence (P17787 26-502): as the sequence (P17787 26-502) above
# Procedure: as §3, §1, §2
# [10] = target: (α4L311V)3(β2)2 nAChR (Homo sapiens, UniProt P43681, L311V); details: 10 µM ACh + 1 µM PAM vs 10 µM ACh alone
# (α4L311V)3(β2)2 nAChR, sequence (P43681 29-627 L311V limits assumed): as the sequence (P43681 29-627 limits assumed) above, with L283V counted along it
# (α4L311V)3(β2)2 nAChR, sequence (P17787 26-502 partner): as the sequence (P17787 26-502) above
# Procedure: as §3, §1, §2
# [11] = target: T8, (α4M605V)3(β2)2 nAChR (Homo sapiens, UniProt P17787+P43681, M605V); details: for R, potentiation ratio (PR): 10 µM ACh + 1 µM PAM vs 10 µM ACh alone
# T8 construct: expressed in transfected cells; host or cells: Xenopus laevis oocytes injected with cRNA
# T8 sequence (P43681 29-627 M605V limits assumed): as the sequence (P43681 29-627 limits assumed) above, with M577V counted along it
# T8 sequence (P17787 26-502): as the sequence (P17787 26-502) above
# Procedure: as §3, §1, §2
# [12] = target: T9, (α4T261D)3(β2)2 nAChR (Homo sapiens, UniProt P17787+P43681, T261D); details: for R, potentiation ratio (PR): 10 µM ACh + 1 µM PAM vs 10 µM ACh alone
# T9 construct: expressed in transfected cells; host or cells: Xenopus laevis oocytes injected with cRNA
# T9 sequence (P43681 29-627 T261D limits assumed): as the sequence (P43681 29-627 limits assumed) above, with T233D counted along it
# T9 sequence (P17787 26-502): as the sequence (P17787 26-502) above
# Procedure: as §3, §1, §2
# [13] = target: T10, (α4T313C)3(β2)2 nAChR (Homo sapiens, UniProt P17787+P43681, T313C); details: for R, potentiation ratio (PR): 10 µM ACh + 1 µM PAM vs 10 µM ACh alone
# T10 construct: expressed in transfected cells; host or cells: Xenopus laevis oocytes injected with cRNA
# T10 sequence (P43681 29-627 T313C limits assumed): as the sequence (P43681 29-627 limits assumed) above, with T285C counted along it
# T10 sequence (P17787 26-502): as the sequence (P17787 26-502) above
# Procedure: as §3, §1, §2
# [14] = target: T11, α4β2 nAChR (Homo sapiens, UniProt P17787+P43681); details: 1 μM PAM
# T11 construct: expressed in transfected cells; host or cells: Xenopus laevis oocytes injected with cRNA
# T11 sequence (P43681 29-627 limits assumed): as the sequence (P43681 29-627 limits assumed) above
# T11 sequence (P17787 26-502): as the sequence (P17787 26-502) above
# Procedure: (§4) Next, Xenopus oocytes were injected with RNA mixes of […], α3:β4, […], or α4:β4 at ratios of 8:1, 1:1, or 1:8 to express nAChRs with different subunit composition and with various α:β ratios.
# as §1, §2
# [15] = target: T12, α4β4 nAChR (Homo sapiens, UniProt P30926+P43681); details: 1 μM PAM
# T12 construct: expressed in transfected cells; host or cells: Xenopus laevis oocytes injected with cRNA
# T12 sequence (P43681 29-627 limits assumed): as the sequence (P43681 29-627 limits assumed) above
# T12 sequence (P30926 22-498): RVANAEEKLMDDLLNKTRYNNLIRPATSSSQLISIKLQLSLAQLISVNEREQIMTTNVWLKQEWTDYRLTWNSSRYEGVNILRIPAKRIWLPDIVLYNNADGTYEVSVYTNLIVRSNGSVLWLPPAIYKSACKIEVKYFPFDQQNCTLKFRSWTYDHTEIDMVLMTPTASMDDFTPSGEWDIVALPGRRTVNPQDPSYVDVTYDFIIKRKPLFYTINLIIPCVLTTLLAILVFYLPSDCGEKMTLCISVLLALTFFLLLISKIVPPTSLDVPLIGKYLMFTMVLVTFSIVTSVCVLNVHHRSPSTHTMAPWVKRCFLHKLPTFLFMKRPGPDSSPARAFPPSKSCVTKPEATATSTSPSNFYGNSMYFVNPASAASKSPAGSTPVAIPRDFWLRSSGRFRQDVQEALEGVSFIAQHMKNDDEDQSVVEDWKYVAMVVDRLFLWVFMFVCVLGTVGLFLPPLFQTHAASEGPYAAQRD
# Procedure: as §4, §1, §2
# [16] = ACh concentration-response curve, normalized to 1 mM ACh alone
# [17] = normalized to 10 µM ACh alone, not from curve fitting, maximum seen at any concentration up to 10 µM LY2087101
# [18] = read-out: LY2087101 potentiation EC50
# [19] = normalized to peak current by 10 µM ACh alone, curve fit
structure (smiles),measurement,setting,value
"Cc1nc(Nc2ccc(F)cc2)sc1C(=O)c1ccsc1 [LY2087101, [2-[(4-Fluorophenyl)amino]-4-methyl-5-thiazolyl]-3-thienylmethanone]","R, potentiation ratio (PR)",[1]; WT,4.1 ± 0.3
same,ACh Imax in the presence of 1 µM LY2087101,[1]; [16],251 ± 19% and ~ 250%
same,EC50,"[1]; co-applied with 10 µM ACh, LS WT, read-out: LY2087101 potentiation EC50",1.4 µM and 1 to 2 µM
same,"R, potentiation ratio (PR)",[2],1.7 ± 0.2
same,LY2087101 potentiation Imax%,[2]; [17],270 ± 30%
same,"R, potentiation ratio (PR)",[3],2.5 ± 0.2
same,LY2087101 potentiation Imax%,[3]; [17],269 ± 43%
same,EC50,[3]; [18],0.1 ± 0.01 µM
same,"R, potentiation ratio (PR)",[4],1.1 ± 0.1
same,ACh Imax in the presence of 1 µM LY2087101,[4]; [16],122 ± 13%
same,"R, potentiation ratio (PR)",[5],2.3 ± 0.3
same,ACh Imax in the presence of 1 µM LY2087101,[5]; [16],144 ± 13% and 144 ± 013%
same,LY2087101 potentiation Imax%,[5]; [19],195 ± 13%
same,EC50,[5]; [18],0.3 ± 0.2 µM
same,"R, potentiation ratio (PR)",[6],3.7 ± 0.5
same,EC50,[6]; [18],1.7 ± 0.2 µM
same,"R, potentiation ratio (PR)",[7],2.5 ± 0.2
same,LY2087101 potentiation Imax%,[7]; [19],405 ± 5%
same,EC50,[7]; [18],1.2 ± 0.5 µM
same,"R, potentiation ratio (PR)",[8],4.4 ± 0.6
same,LY2087101 potentiation Imax%,[8]; [19],840 ± 31%
same,EC50,[8]; [18],1.2 ± 0.1 µM
same,"R, potentiation ratio (PR)",[9],1.6 ± 0.2
same,ACh Imax in the presence of 1 µM LY2087101,[9]; [16],264 ± 80%
same,LY2087101 potentiation Imax%,[9]; [19],269 ± 21%
same,EC50,[9]; [18],2.5 ± 0.6 µM
same,"R, potentiation ratio (PR)",[10],15.6 ± 3.2
same,"R, potentiation ratio (PR)",[11],3.8 ± 1.1
same,LY2087101 potentiation Imax%,[11]; [19],856 ± 3%
same,EC50,[11]; [18],2.7 ± 0.02 µM
same,"R, potentiation ratio (PR)",[12],1.6 ± 0.1
same,ACh Imax in the presence of 1 µM LY2087101,[12]; [16],180 ± 23%
same,LY2087101 potentiation Imax%,[12]; [19],215 ± 29%
same,EC50,[12]; [18],2.4 ± 1.6 µM
same,"R, potentiation ratio (PR)",[13],2.1 ± 0.2
same,LY2087101 potentiation Imax%,[13]; [19],196 ± 23%
same,EC50,[13]; [18],0.7 ± 0.1 µM
same,potentiation of ACh responses,[14],potentiated
same,potentiation of ACh responses,[15],potentiated
C=CC(C)(C)c1[nH]c2cc(Br)ccc2c1CCNC [dFBr],"R, potentiation ratio (PR)",[1]; WT,4.4 ± 0.2
same,dFBr potentiation h (Hill coefficient),"[1]; co-applied with 10 μM ACh, WT",1.1 ± 0.2
same,dFBr potentiation Imax,"[1]; normalized to 10 µM ACh alone, WT",580 ± 42%
same,EC50,[1]; read-out: dFBr potentiation EC50,1 ± 0.3 µM
same,"R, potentiation ratio (PR)",[2],1.0 and 1.0 ± 0.1
same,ACh Imax in the presence of 1 µM dFBr,[2]; [16],110 ± 06%
same,dFBr concentration-dependent potentiation of ACh-current responses,"[2]; dFBr up to 10 µM, 10 μM ACh",did not potentiate
same,inhibition at 10 µM,[2]; read-out: inhibition of ACh-current response at 10 μM dFBr,~45%
same,"R, potentiation ratio (PR)",[3],1.2 and ~ 1.2 and 1.2 ± 0.1
same,dFBr concentration-dependent potentiation of ACh-current responses,"[3]; dFBr up to 10 µM, 10 μM ACh",did not potentiate
same,"R, potentiation ratio (PR)",[4],1.2 and ~ 1.2 and 1.2 ± 0.1
same,ACh Imax in the presence of 1 µM dFBr,[4]; [16],148 ± 12%
same,dFBr concentration-dependent potentiation of ACh-current responses,"[4]; dFBr up to 10 µM, 10 μM ACh",did not potentiate
same,"R, potentiation ratio (PR)",[5],3.1 ± 0.4
same,ACh Imax in the presence of 1 µM dFBr,[5]; [16],159 ± 07%
same,"R, potentiation ratio (PR)",[6],4.0 ± 0.6
same,"R, potentiation ratio (PR)",[7],1.2 and ~ 1.2 and 1.2 ± 0.2
same,"R, potentiation ratio (PR)",[8],5.4 ± 0.4
same,"R, potentiation ratio (PR)",[9],3.6 ± 0.4
same,ACh Imax in the presence of 1 µM dFBr,[9]; [16],250 ± 36%
same,"R, potentiation ratio (PR)",[10],5.8 ± 1.4
same,"R, potentiation ratio (PR)",[11],5.3 ± 1.2
same,"R, potentiation ratio (PR)",[12],~ 2.1 and 2.1 ± 0.1
same,"R, potentiation ratio (PR)",[13],3.9 ± 0.4
same,potentiation of ACh responses,[14],potentiated
same,potentiation of ACh responses,[15],did not potentiate
